Measurements taken from article PMC8757360 (ACS Omega, 2021).

Assays:
[1] = tested on: MCF-7, T47D, MDA-MB-231, and A549; assay: MTT cytotoxicity, range stated over four cancer cell lines; type: cell-based; settings: Homo sapiens, 72 h, read-out: IC50 values ranging over four cancer cell lines
MCF-7 = assay: MTT cytotoxicity, MCF-7; settings: for IC50: Homo sapiens, MCF7, 72 h, read-out: IC50 MCF-7
A549 = assay: MTT cytotoxicity, A549; type: cell-based; settings: Homo sapiens, A549, 72 h, read-out: IC50 A549
T47D = assay: MTT cytotoxicity, T47D; settings: for IC50: Homo sapiens, T47D, 72 h, read-out: IC50 T47D; for cytotoxic effect, fold more potent than berberine: T47D cells, versus positive control berberine
human ACE2 = human ACE2 (Homo sapiens, UniProt Q9BYF1); assay: biochemical; type: binding
MDA-MB-231 = assay: MTT cytotoxicity, MDA-MB-231; type: cell-based; settings: Homo sapiens, MDA-MB-231, 72 h, read-out: IC50 MDA-MB-231
HEK-293T-ACE2h cells = settings: human
SARS-CoV-2 spike RBD = SARS-CoV-2 spike RBD (Severe acute respiratory syndrome coronavirus 2, UniProt P0DTC2); assay: biochemical; type: binding
[2] = tested on: SARS-CoV-2 spike pseudovirus; type: cell-based

Sequence of human ACE2 (Q9BYF1 18-805): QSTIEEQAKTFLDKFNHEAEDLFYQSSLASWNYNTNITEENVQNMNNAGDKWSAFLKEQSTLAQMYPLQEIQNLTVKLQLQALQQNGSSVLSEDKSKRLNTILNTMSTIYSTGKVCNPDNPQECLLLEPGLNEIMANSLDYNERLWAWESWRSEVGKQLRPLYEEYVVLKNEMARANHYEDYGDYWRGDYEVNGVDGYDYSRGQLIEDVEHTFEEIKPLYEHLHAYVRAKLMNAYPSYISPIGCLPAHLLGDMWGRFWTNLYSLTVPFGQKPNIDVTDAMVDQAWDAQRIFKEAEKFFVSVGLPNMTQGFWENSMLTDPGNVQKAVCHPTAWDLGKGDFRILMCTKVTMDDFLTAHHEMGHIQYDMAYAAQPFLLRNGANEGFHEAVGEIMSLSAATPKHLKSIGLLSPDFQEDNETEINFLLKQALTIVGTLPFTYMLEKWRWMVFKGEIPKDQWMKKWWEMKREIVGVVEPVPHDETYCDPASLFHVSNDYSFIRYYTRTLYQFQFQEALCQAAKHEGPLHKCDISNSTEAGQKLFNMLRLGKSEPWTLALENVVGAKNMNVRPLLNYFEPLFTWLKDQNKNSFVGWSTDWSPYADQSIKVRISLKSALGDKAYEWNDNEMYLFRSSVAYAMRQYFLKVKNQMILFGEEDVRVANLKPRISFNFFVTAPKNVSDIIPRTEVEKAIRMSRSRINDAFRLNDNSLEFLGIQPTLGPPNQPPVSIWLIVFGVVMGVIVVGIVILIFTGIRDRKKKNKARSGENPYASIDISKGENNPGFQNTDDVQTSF

With c1ccc(-c2nc3ccccc3nc2-c2ccccc2)cc1 [4aa, 2,3-Diphenylquinoxaline] the IC50 [1] was 6.25 to 28.6 µM, the IC50 (MCF-7) was 16.7 ± 1.34 µM and the IC50 (A549) was 26.3 ± 1.96 µM. For the same compound, the IC50 (T47D) was 11.4 ± 1.17 µM, the Kd (human ACE2) was 5890 ± 1670 µM and the IC50 (MDA-MB-231) was 28.6 ± 1.85 µM. For the same compound, the “CC0 (maximum nontoxic concentration)” value (HEK-293T-ACE2h cells) was over 250 µM, the “TC50 (concentration that caused 50% cells' death)” value (HEK-293T-ACE2h cells) was over 25 µM and the Kd (SARS-CoV-2 spike RBD) was 1000 ± 761 µM.
c1ccc(-c2nc3ccccc3nc2-c2ccsc2)cc1 [4ra, 2-Phenyl-3-(thiophen-3-yl)quinoxaline] was tested, and the IC50 (MCF-7) was over 50 µM, the IC50 (A549) was over 50 µM and the IC50 (T47D) was over 50 µM. The IC50 (MDA-MB-231) was over 50 µM, the “CC0 (maximum nontoxic concentration)” value (HEK-293T-ACE2h cells) was 62.5 µM and the “TC50 (concentration that caused 50% cells' death)” value (HEK-293T-ACE2h cells) was 337.06 ± 15.49 µM.
COC(=O)c1ccc2nc(-c3ccccc3)c(-c3ccccc3)nc2c1 [4af, Methyl 2,3-diphenylquinoxaline-6-carboxylate] gave an IC50 (MCF-7) of over 50 µM, an IC50 (A549) of over 50 µM and an IC50 (T47D) of over 50 µM. For the same compound, the IC50 (MDA-MB-231) was over 50 µM, the “CC0 (maximum nontoxic concentration)” value (HEK-293T-ACE2h cells) was 100 µM and the “TC50 (concentration that caused 50% cells' death)” value (HEK-293T-ACE2h cells) was over 100 µM.
COc1ccc2cc3[n+](cc2c1OC)CCc1cc2c(cc1-3)OCO2 [berberine, reference compound] showed an IC50 (MCF-7) of 14.3 ± 1.44 µM, an IC50 (A549) of 5.22 ± 0.44 µM and an IC50 (T47D) of 26.7 ± 2.45 µM. The IC50 (MDA-MB-231) was 18 ± 1.91 µM.
For Fc1ccc(-c2nc3ccccc3nc2-c2ccccc2)cc1 [4ka, 2-(4-Fluorophenyl)-3-phenylquinoxaline], the “CC0 (maximum nontoxic concentration)” value (HEK-293T-ACE2h cells) was 25 µM and the “TC50 (concentration that caused 50% cells' death)” value (HEK-293T-ACE2h cells) was over 100 µM.
Compound COc1ccc2nc(-c3ccccc3)c(-c3ccccc3)nc2c1 [4ac, 6-Methoxy-2,3-diphenylquinoxaline] has an IC50 (MCF-7) of over 50 µM, an IC50 (A549) of over 50 µM and an IC50 (T47D) of over 50 µM. The IC50 (MDA-MB-231) was over 50 µM, the “CC0 (maximum nontoxic concentration)” value (HEK-293T-ACE2h cells) was 50 µM and the “TC50 (concentration that caused 50% cells' death)” value (HEK-293T-ACE2h cells) was 116.03 ± 4.28 µM.
With COc1ccc(-c2nc3ccccc3nc2-c2ccccc2)cc1 [4ca, 2-(4-Methoxyphenyl)-3-phenylquinoxaline] the “SI (selectivity index, TC50/IC50)” value [2] was 14.05, the IC50 (MCF-7) was over 50 µM and the IC50 (A549) was over 50 µM. For the same compound, the IC50 (T47D) was over 50 µM, the Kd (human ACE2) was 3.67 ± 0.66 µM and the IC50 (MDA-MB-231) was 48.8 ± 1.01 µM. For the same compound, the “CC0 (maximum nontoxic concentration)” value (HEK-293T-ACE2h cells) was 125 µM, the “TC50 (concentration that caused 50% cells' death)” value (HEK-293T-ACE2h cells) was 276.90 ± 13.45 µM and the Kd (SARS-CoV-2 spike RBD) was 15.5 ± 1.14 µM.
With C=CCc1cc(-c2cc(CC=C)c3oc(=O)n(Cc4nnc(-c5ccc(OC)cc5)o4)c3c2)c2oc(=O)n(Cc3nnc(-c4ccc(OC)cc4)o3)c2c1 [6p, 5′,7-Diallyl-3,3′-bis((5-(4-methoxyphenyl)-1,3,4-oxadiazol-2-yl)methyl)-[5,7′-bibenzo[d]oxazole]-2,2′(3H,3′H)-dione, reference compound] the “SI (selectivity index, TC50/IC50)” value [2] was over 8.40, the “CC0 (maximum nontoxic concentration)” value (HEK-293T-ACE2h cells) was over 100 µM and the “TC50 (concentration that caused 50% cells' death)” value (HEK-293T-ACE2h cells) was over 100 µM.
In the case of Clc1ccc(-c2nc3ccccc3nc2-c2ccccc2)cc1 [4ia, 2-(4-Chlorophenyl)-3-phenylquinoxaline], the IC50 [1] is reported as 6.25 to 28.6 µM, the IC50 (MCF-7) is reported as 7.3 ± 1.1 µM and the “cytotoxic effect, fold more potent than berberine” value (MCF-7; MCF-7 cells, versus positive control berberine) is reported as 1.96 fold. The IC50 (A549) was 18.6 ± 0.25 µM, the IC50 (T47D) was 6.25 ± 0.73 µM and the “cytotoxic effect, fold more potent than berberine” value (T47D) was 4.27 fold. The IC50 (MDA-MB-231) was 17.8 ± 0.69 µM, the “CC0 (maximum nontoxic concentration)” value (HEK-293T-ACE2h cells) was 25 µM and the “TC50 (concentration that caused 50% cells' death)” value (HEK-293T-ACE2h cells) was 115.20 ± 9.72 µM.
Cc1ccc2nc(-c3ccccc3)c(-c3ccccc3)nc2c1 [4ab, 6-Methyl-2,3-diphenylquinoxaline] showed an IC50 [1] of 6.25 to 28.6 µM, an IC50 (MCF-7) of 10 ± 0.55 µM and an IC50 (A549) of 19.7 ± 1.28 µM. For the same compound, the IC50 (T47D) was 6.77 ± 0.57 µM, the “cytotoxic effect, fold more potent than berberine” value (T47D) was 3.94 fold and the IC50 (MDA-MB-231) was 18.2 ± 1.34 µM. For the same compound, the “CC0 (maximum nontoxic concentration)” value (HEK-293T-ACE2h cells) was 62.5 µM and the “TC50 (concentration that caused 50% cells' death)” value (HEK-293T-ACE2h cells) was 288.40 ± 17.65 µM.
Clc1ccc2nc(-c3ccccc3)c(-c3ccccc3)nc2c1 [4ad, 6-Chloro-2,3-diphenylquinoxaline] was tested, and the “SI (selectivity index, TC50/IC50)” value [2] was over 23.49, the IC50 (MCF-7) was over 50 µM and the IC50 (A549) was over 50 µM. For the same compound, the IC50 (T47D) was over 50 µM, the Kd (human ACE2) was 4.02 ± 2.03 µM and the IC50 (MDA-MB-231) was over 50 µM. For the same compound, the “CC0 (maximum nontoxic concentration)” value (HEK-293T-ACE2h cells) was over 25 µM, the “TC50 (concentration that caused 50% cells' death)” value (HEK-293T-ACE2h cells) was over 500 µM and the Kd (SARS-CoV-2 spike RBD) was 8.16 ± 1.34 µM.
For N#Cc1ccc2nc(-c3ccccc3)c(-c3ccccc3)nc2c1 [4ae, 2,3-Diphenylquinoxaline-6-carbonitrile], the IC50 (MCF-7) was over 50 µM, the IC50 (A549) was over 50 µM and the IC50 (T47D) was over 50 µM. The IC50 (MDA-MB-231) was over 50 µM, the “CC0 (maximum nontoxic concentration)” value (HEK-293T-ACE2h cells) was 125 µM and the “TC50 (concentration that caused 50% cells' death)” value (HEK-293T-ACE2h cells) was 303.27 ± 9.51 µM.
For c1ccc(-c2nc3ccccc3nc2-c2ccc3ccccc3c2)cc1 [4pa, 2-(Naphthalen-2-yl)-3-phenylquinoxaline], the IC50 (MCF-7) was over 50 µM, the IC50 (A549) was over 50 µM and the IC50 (T47D) was over 50 µM. The IC50 (MDA-MB-231) was over 50 µM, the “CC0 (maximum nontoxic concentration)” value (HEK-293T-ACE2h cells) was over 25 µM and the “TC50 (concentration that caused 50% cells' death)” value (HEK-293T-ACE2h cells) was over 250 µM.
For c1ccc(-c2nc3cc4ccccc4cc3nc2-c2ccccc2)cc1 [4ag, 2,3-Diphenylbenzo[g]quinoxaline], the IC50 (MCF-7) was over 50 µM, the IC50 (A549) was 44.5 ± 3.55 µM and the IC50 (T47D) was 20.5 ± 1.64 µM. The IC50 (MDA-MB-231) was 45 ± 1.57 µM, the “CC0 (maximum nontoxic concentration)” value (HEK-293T-ACE2h cells) was 50 µM and the “TC50 (concentration that caused 50% cells' death)” value (HEK-293T-ACE2h cells) was 107.20 ± 1.64 µM.
Cc1ccc(-c2nc3ccccc3nc2-c2ccccc2)cc1 [4ba, 2-Phenyl-3-(p-tolyl)quinoxaline] showed an IC50 [1] of 6.25 to 28.6 µM, an IC50 (MCF-7) of 15.7 ± 1.18 µM and an IC50 (A549) of 24.1 ± 1.11 µM. The IC50 (T47D) was 9.76 ± 1.3 µM, the IC50 (MDA-MB-231) was 21.4 ± 1.19 µM and the “CC0 (maximum nontoxic concentration)” value (HEK-293T-ACE2h cells) was 125 µM. The “TC50 (concentration that caused 50% cells' death)” value (HEK-293T-ACE2h cells) was 271.67 ± 13.00 µM.
c1ccc(-c2ccc(-c3nc4ccccc4nc3-c3ccccc3)cc2)cc1 [4ha, 2-([1,1′-Biphenyl]-4-yl)-3-phenylquinoxaline] was tested, and the “SI (selectivity index, TC50/IC50)” value [2] was over 3.50, the IC50 (MCF-7) was over 50 µM and the IC50 (A549) was over 50 µM. The IC50 (T47D) was over 50 µM, the Kd (human ACE2) was 238 ± 57.3 µM and the IC50 (MDA-MB-231) was over 50 µM. For the same compound, the “CC0 (maximum nontoxic concentration)” value (HEK-293T-ACE2h cells) was over 250 µM, the “TC50 (concentration that caused 50% cells' death)” value (HEK-293T-ACE2h cells) was over 500 µM and the Kd (SARS-CoV-2 spike RBD) was 135 ± 17.7 µM.
In the case of Brc1ccc(-c2nc3ccccc3nc2-c2ccccc2)cc1 [4ja, 2-(4-Bromophenyl)-3-phenylquinoxaline], the “CC0 (maximum nontoxic concentration)” value (HEK-293T-ACE2h cells) is reported as 25 µM and the “TC50 (concentration that caused 50% cells' death)” value (HEK-293T-ACE2h cells) is reported as over 100 µM.
